Target: human H4 receptor (Homo sapiens (Human), UniProt Q9H3N8)
Assay: Binding assay on recombinant human histamine H4 receptor ([3H]histamine competition, SK-N-MC cell membranes)
Settings: membranes harvested with cell harvester; [3H]histamine 10 nM; average of results; read-out: Cell Harvester Ki
How it was run: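 Membranes from SK-N-MC cells stably or transiently transfected with human H4 receptor, prepared by homogenization and 30,000 g centrifugation in Tris/EDTA. Bound [3H]histamine separated by rapid filtration on PEI-treated GF/C filters, washed with ice-cold Tris/EDTA, counted by scintillation. '>' values denote highest concentration tested.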

Sequence of human H4 receptor (Q9H3N8 whole entry): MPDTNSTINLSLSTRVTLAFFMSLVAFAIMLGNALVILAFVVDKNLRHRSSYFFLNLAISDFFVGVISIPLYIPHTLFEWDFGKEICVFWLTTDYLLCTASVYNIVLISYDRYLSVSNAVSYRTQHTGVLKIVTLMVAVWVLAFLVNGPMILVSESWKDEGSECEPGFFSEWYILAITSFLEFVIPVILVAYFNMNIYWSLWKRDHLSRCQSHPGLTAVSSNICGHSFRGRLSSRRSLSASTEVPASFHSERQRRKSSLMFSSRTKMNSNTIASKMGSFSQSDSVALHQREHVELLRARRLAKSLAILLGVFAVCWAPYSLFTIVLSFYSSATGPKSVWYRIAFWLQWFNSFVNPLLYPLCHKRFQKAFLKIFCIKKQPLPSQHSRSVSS

SMILES	Ki
CN[C@@H]1CCN(c2ccnc(NC(C)C)n2)C1 [Example 78, Isopropyl-[4-(3R)-(3-methylamino-pyrrolidin-1-yl)-pyrimidin-2-yl]-amine]	6 nM
N[C@H]1CCN(c2cnnc(NCC3CCCC3)c2)C1 [Example 317, 5-[(3S)-3-Aminopyrrolidin-1-yl]-N-(cyclopentylmethyl)pyridazin-3-amine]	930 nM
N[C@H]1CCN(c2ccnc(NCCc3ccccc3)c2)C1 [Example 276, 4-[(3S)-3-Aminopyrrolidin-1-yl]-N-(2-phenylethyl)pyridin-2-amine]	1640 nM
CN[C@@H]1CCN(c2ccnc(NCc3ccccc3)c2)C1 [Example 11, N-Benzyl-4-[(3R)-3-(methylamino)pyrrolidin-1-yl]pyridin-2-amine]	12.9 nM
CNC1CN(c2ccnc(NCC(C)C)c2)C1 [Example 34, 4-[3-(Methylamino)azetidin-1-yl]-N-(2-methylpropyl)pyridin-2-amine]	18.1 nM
CN[C@H]1CCN(c2ccnc(N[C@H](C)C3CCCCC3)c2)C1 [Example 213, N-[(1R)-1-Cyclohexylethyl]-4-[(3S)-3-(methylamino)pyrrolidin-1-yl]pyridin-2-amine]	157 nM
CNC1CN(c2ccnc(NC3CCOCC3)n2)C1 [Example 108, 4-[3-(Methylamino)azetidin-1-yl]-N-(tetrahydro-2H-pyran-4-yl)pyrimidin-2-amine]	141 nM
CNC1CN(c2cnnc(NCC(C)(C)C)c2)C1 [Example 324, N-(2,2-Dimethylpropyl)-5-[3-(methylamino)azetidin-1-yl]pyridazin-3-amine]	899 nM
CC1(C)C2CCC(CNc3nccc(N4CC[C@@H](N)C4)n3)C1C2 (stereo partly drawn) [Example 106, 4-[(3R)-3-Aminopyrrolidin-1-yl]-N-[(6,6-dimethylbicyclo[3.1.1]hept-2-yl)methyl]pyrimidin-2-amine]	194 nM
CN1CCN(c2cnnc(NCC3CCCC3)c2)CC1 [Example 408, N-(Cyclopentylmethyl)-5-(4-methylpiperazin-1-yl)pyridazin-3-amine]	> 10000 nM
CN[C@@H]1CCN(c2cnnc(NCCc3ccccc3)c2)C1 [Example 372, 5-[(3R)-3-(Methylamino)pyrrolidin-1-yl]-N-(2-phenylethyl)pyridazin-3-amine]	139 nM
CN(CCN)c1cnnc(NCC(C)(C)C)c1 [Example 300, N^5-(2-Aminoethyl)-N^3-(2,2-dimethylpropyl)-N^5-methylpyridazine-3,5-diamine]	1860 nM
CCCCNc1nccc(N2CCNCC2)n1 [Example 68, Butyl-(4-piperazin-1-yl-pyrimidin-2-yl)-amine]	36.7 nM
CN[C@@H]1CCN(c2ccnc(NCC(C)(C)O)c2)C1 [Example 240, 2-Methyl-1-({4-[(3R)-3-(methylamino)pyrrolidin-1-yl]pyridin-2-yl}amino)propan-2-ol]	54.3 nM
N[C@@H]1CCN(c2cnnc(NCc3ccccn3)c2)C1 [Example 337, 5-[(3R)-3-Aminopyrrolidin-1-yl]-N-(pyridin-2-ylmethyl)pyridazin-3-amine]	> 10000 nM
CN[C@@H]1CCN(c2cnnc(NCc3ccc(C)cc3)c2)C1 [Example 384, 5-[(3R)-3-(Methylamino)pyrrolidin-1-yl]-N-(4-methylbenzyl)pyridazin-3-amine]	2000 nM
CN[C@@H]1CCN(c2ccnc(NC3CCOCC3)c2)C1 [Example 222, 4-[(3R)-3-(Methylamino)pyrrolidin-1-yl]-N-(tetrahydro-2H-pyran-4-yl)pyridin-2-amine]	67.3 nM
CN[C@@H]1CCN(c2cnnc(NCCOC)c2)C1 [Example 393, N-(2-Methoxyethyl)-5-[(3R)-3-(methylamino)pyrrolidin-1-yl]pyridazin-3-amine]	1810 nM
CN[C@@H]1CCN(c2ccnc(NCC3CCCC3)n2)C1 [Example 121, N-(Cyclopentylmethyl)-4-[(3R)-3-(methylamino)pyrrolidin-1-yl]pyrimidin-2-amine]	1.57 nM
CC(C)(O)CNc1cc(N2CC[C@H](N)C2)ccn1 [Example 273, 1-({4-[(3S)-3-Aminopyrrolidin-1-yl]pyridin-2-yl}amino)-2-methylpropan-2-ol]	3170 nM
CNC1CN(c2ccnc(N[C@H](C)C3CCCCC3)n2)C1 [Example 113, N-[(1R)-1-Cyclohexylethyl]-4-[3-(methylamino)azetidin-1-yl]pyrimidin-2-amine]	139 nM
CNC1CN(c2ccnc(NCC(C)(C)CO)n2)C1 [Example 136, 2,2-Dimethyl-3-({4-[3-(methylamino)azetidin-1-yl]pyrimidin-2-yl}amino)propan-1-ol]	193 nM
c1nnc(NC2CCCC2)cc1N1C[C@H]2CCN[C@H]2C1 [Example 345, N-Cyclopentyl-5-[(3aR,6aR)-hexahydropyrrolo[3,4-b]pyrrol-5(1H)-yl]pyridazin-3-amine]	1320 nM
COCCNc1nccc(N2CCN(C)CC2)n1 [Example 60, N-(2-Methoxyethyl)-4-(4-methylpiperazin-1-yl)pyrimidin-2-amine]	342 nM

SMILES	Ki
CN1CCN(c2ccnc(N[C@H]3C[C@H]4CC[C@]3(C)C4(C)C)c2)CC1 [Example 252, 4-(4-Methylpiperazin-1-yl)-N-[(1R,2S,4R)-1,7,7-trimethylbicyclo[2.2.1]hept-2-yl]pyridin-2-amine]	190 nM
CN[C@@H]1CCN(c2cnnc(NCc3ccccc3)c2)C1 [Example 397, N-Benzyl-5-[(3R)-3-(methylamino)pyrrolidin-1-yl]pyridazin-3-amine]	353 nM
CN[C@@H]1CCN(c2ccnc(NC3CC3)n2)C1 [Example 80, Cyclopropyl-[4-(3R)-(3-methylamino-pyrrolidin-1-yl)-pyrimidin-2-yl]-amine]	23.5 nM
NC1CN(c2cnnc(NCC3CCCC3)c2)C1 [Example 358, 5-(3-Aminoazetidin-1yl)-N-(cyclopentylmethyl)pyridazin-3-amine]	> 10000 nM
CN[C@@H]1CCN(c2cnnc(NCCCO)c2)C1 [Example 390, 3-({5-[(3R)-3-(Methylamino)pyrrolidin-1-yl]pyridazin-3-yl}amino)propan-1-ol]	> 10000 nM
CC(C)CNc1cc(N2C[C@H]3CCN[C@H]3C2)cnn1 [Example 318, 5-[(3aR,6aR)-Hexahydropyrrolo[3,4-b]pyrrol-5(1H)-yl]-N-(2-methylpropyl)pyridazin-3-amine]	1240 nM
N[C@@H]1CCN(c2cnnc(NCC3CC3)c2)C1 [Example 369, 5-[(3R)-3-Aminopyrrolidin-1-yl]-N-(cyclopropylmethyl)pyridazin-3-amine]	619 nM
CNC1CN(c2ccnc(NCC(C)(C)O)c2)C1 [Example 282, 2-Methyl-1-({4-[3-(methylamino)azetidin-1-yl]pyridin-2-yl}amino)propan-2-ol]	173 nM
c1cc(N2CCNCC2)cc(NCC2CCCC2)n1 [Example 311, N-(Cyclopentylmethyl)-4-piperazin-1-ylpyridin-2-amine]	226 nM
CN[C@@H]1CCN(c2ccnc(NCC(C)(C)CO)n2)C1 [Example 169, 2,2-Dimethyl-3-({4-[(3R)-3-(methylamino)pyrrolidin-1-yl]pyrimidin-2-yl}amino)propan-1-ol]	9.67 nM
CC(C)Nc1nccc(N2CCNCC2)n1 [Example 67, Isopropyl-(4-piperazin-1-yl-pyrimidin-2-yl)amine]	275 nM
CNC1CN(c2cnnc(NC3C[C@H]4C[C@@H](C3C)C4(C)C)c2)C1 (stereo partly drawn) [Example 301, 5-[3-(Methylamino)azetidin-1-yl]-N-[(1S,5R)-2,6,6-trimethylbicyclo[3.1.1]hept-3-yl]pyridazin-3-amine]	202 nM
CNC1CN(c2ccnc(NC3CCCC3)c2)C1 [Example 259, N-Cyclopentyl-4-[3-(methylamino)azetidin-1-yl]pyridin-2-amine]	5.15 nM
CN[C@@H]1CCN(c2ccnc(Nc3ccccc3)c2)C1 [Example 33, 4-[(3R)-3-(Methylamino)pyrrolidin-1-yl]-N-phenylpyridin-2-amine]	0.9 nM
CN[C@H]1CCN(c2cnnc(NCC3CC4CCC3C4)c2)C1 (stereo partly drawn) [Example 374, N-(Bicyclo[2.2.1]hept-2-ylmethyl)-5-[(3S)-3-(methylamino)pyrrolidin-1-yl]pyridazin-3-amine]	298 nM
N[C@@H]1CCN(c2ccnc(NCc3ccc(F)cc3)n2)C1 [Example 57, 4-[(3R)-3-Aminopyrrolidin-1-yl]-N-(4-fluorobenzyl)pyrimidin-2-amine]	140 nM
CNC1CN(c2cnnc(NC3CC3)c2)C1 [Example 351, N-Cyclopropyl-5-[3-(methylamino)azetidin-1-yl]pyridazin-3-amine]	206 nM
CC(C)CNc1nccc(N2CC[C@H](N)C2)n1 [Example 198, 4-[(3S)-3-Aminopyrrolidin-1-yl]-N-(2-methylpropyl)pyrimidin-2-amine]	55 nM
CN[C@H]1CCN(c2ccnc(NC[C@H]3CC[C@H]4C[C@@H]3C4(C)C)c2)C1 [Example 224, N-{[(1S,2S,5S)-6,6-Dimethylbicyclo[3.1.1]hept-2-yl]methyl}-4-[(3S)-3-(methylamino)pyrrolidin-1-yl]pyridin-2-amine]	239 nM
COc1ccc(CNc2nccc(N3CCNCC3)n2)cc1 [Example 144, N-(4-Methoxybenzyl)-4-piperazin-1-ylpyrimidin-2-amine]	2530 nM
N[C@@H]1CCN(c2ccnc(NC3CCC3)n2)C1 [Example 28, 4-[(3R)-3-Aminopyrrolidin-1-yl]-N-cyclobutylpyrimidin-2-amine]	8.4 nM
CNC1CN(c2ccnc(NCCCO)c2)C1 [Example 283, 3-({4-[3-(Methylamino)azetidin-1-yl]pyridin-2-yl}amino)propan-1-ol]	162 nM
Fc1ccc(CNc2nccc(N3C[C@H]4CCN[C@H]4C3)n2)cc1 [Example 142, N-(4-Fluorobenzyl)-4-[(3aR,6aR)-hexahydropyrrolo[3,4-b]pyrrol-5(1H)-yl]pyrimidin-2-amine]	7090 nM
